Assay results reported in BigSolDB 2.1.

COc1ccc(CC(=O)O)cc1
solubility (mole fraction)
Conditions | 283.15 K | 288.15 K | 293.15 K | 298.15 K | 303.15 K | 308.15 K | 313.15 K | 318.15 K | 323.15 K
in acetonitrile | 0.0423 | 0.0499 | 0.0587 | 0.0687 | 0.0803 | 0.0941 | 0.112 | 0.135 | 0.166
in anisole | 0.0323 | 0.0425 | 0.0519 | 0.0626 | 0.0737 | 0.0858 | 0.0999 | 0.118 | 0.139
in isopropanol | 0.114 | 0.142 | 0.169 | 0.198 | 0.228 | 0.258 | 0.289 | 0.323 | 0.351
in morpholine | 0.0094 | 0.0139 | 0.0185 | 0.0239 | 0.0293 | 0.0348 | 0.0404 | 0.0459 | 0.0503
in toluene | 0.0166 | 0.0209 | 0.0264 | 0.0337 | 0.0415 | 0.0522 | 0.0641 | 0.0784 | 0.0941
in water | 0.0011 | 0.002 | 0.0031 | 0.0043 | 0.0057 | 0.0069 | 0.0079 | 0.0092 | 0.0105
